The record followed here is US9586966B2, “Piperazino[1,2-a]indol-1-ones and [1,4]diazepino[1,2-a]indol-one” (Hoffmann-La Roche Inc., priority 2013, dated 2017).

In series [1] the test system is human embryonic stem cell derived neural stem cells (NSCs). Kind of series: Neural stem cell proliferation assay (neurogenesis assay, ATP levels by CellTiterGlo). The note with it: 96 h, concentration at which 150% activity of control (100%) is reached, NSC proliferation, ATP levels after 4 days incubation, dose response 8 μM to 8 nM. The class given is cell-based. As for the experimental part:
Neural Stem Cell Proliferation Assay
Neurogenic properties of small molecules are determined based on the proliferation of human embryonic stem cell derived neural stem cells (NSCs) which were derived via a dual smad inhibition as previously described (Chambers, S. M., et al., Highly efficient neural conversion of human ES and iPS cells by dual inhibition of SMAD signaling, Nature biotechnology, 2009. 27(3): p. 275-80.)
Compounds respond is measured by the increase in cells based on ATP levels (Promega:CellTiterGlo®) after an incubation period of 4 days.
NSCs are thawed and expanded over 3 passages. On the 14th day, NSCs are seeded in Polyornithin/Laminin coated 384 well plates at a cell density of 21′000 cells/cm^2 in a media volume of 38 μl. 4 hours after cell seeding, compound solutions are added at a volume of 2 μl. Stock solutions of the compounds (water, 5% DMSO) are diluted to obtain a dose response (11 points, dilution factor is 2), ranging from 8 μM to 8 nM. Controls are run to consistently determine the neurogenic properties of the cells:
Negative (neutral) control is cell culture Media (final DMSO concentration: 0.25%).
1. cell culture Media+100 ng/ml FGF2 (final DMSO concentration: 0.1%)
2. cell culture Media+20 ng/ml EGF (final DMSO concentration: 0.1%)
3. cell culture Media+100 ng/ml Wnt3a (final DMSO concentration: 0.1%)
After 4 days incubation at 37° C., 5% CO2, the amount of ATP per well is quantified. The ATP concentration is proportional to the cell number. ATP is quantified by using the Promega CellTiterGlo® kit. The CellTiterGlo® reagents contain a cell lysis buffer, a thermo stable luciferase (UltraGlo™ recombinant luciferase), magnesium and luciferin. Luciferin reacts with ATP producing oxyluciferin, AMP and light. The luminescence signal is proportional to the ATP content.
The value of negative (neutral) control is determined for each assay plate by taking the average of 16 negative control wells. The neurogenic compound response is calculated for each compound as (compound/Negative Control)*100.
The values of EC150 from the dose response curve are determined for each test compound. The EC150 is the compound concentration at which 150% activity of control (100%) is reached.

Molecule `Cc1cc(Cl)cc2cc3n(c12)CCNC3=O` [Example 27, 8-Chloro-6-methyl-3,4-dihydro-2H-pyrazino[1,2-a]indol-1-one] yielded a melting point of 263 °C. This molecule also returned an EC (150% of control) in series [1] of 5.1 µM.
In turn, `Cc1cc(Cl)cc2cc3n(c12)CCCNC3=O` [Example 28, 9-Chloro-7-methyl-2,3,4,5-tetrahydro-[1,4]diazepino[1,2-a]indol-1-one] gave a melting point of 207 °C. Moreover, in series [1], the EC (150% of control) is 4.1 µM.
`Cc1c2n(c3c(C#N)cc(F)cc13)CCNC2=O` [Example 29, 8-Fluoro-10-methyl-1-oxo-3,4-dihydro-2H-pyrazino[1,2-a]indole-6-carbonitrile] displayed a melting point of 265 °C. In series [1], this molecule came in with an EC (150% of control) of 0.5 µM.
For `Cc1c2n(c3c(OC(F)(F)F)cc(C#N)cc13)CCNC2=O` [Example 30, 10-Methyl-1-oxo-6-(trifluoromethoxy)-3,4-dihydro-2H-pyrazino[1,2-a]indole-8-carbonitrile], in that order: 253 °C and 0.11 µM.
For `Cc1cc(CC(C)C)c2c(c1)cc1n2CCNC1=O` [Example 31, 8-Methyl-6-(2-methylpropyl)-3,4-dihydro-2H-pyrazino[1,2-a]indol-1-one], in that order: 182 °C and 1.16 µM.
Taken in the same sequence, the figures for `Cc1cc(CC(C)C)c2c(c1)cc1n2CCCNC1=O` [Example 32, 9-Methyl-7-(2-methylpropyl)-2,3,4,5-tetrahydro-[1,4]diazepino[1,2-a]indol-1-one] were 160 °C and 2.6 µM.
As for `Cc1cc(C)c2c(c1)cc1n2CCNC1=O` [Example 33, 6,8-Dimethyl-3,4-dihydro-2H-pyrazino[1,2-a]indol-1-one], the melting point is 253 °C. The molecule further registered an EC (150% of control) in series [1] of 4.9 µM.
Taken in the same sequence, the figures for `Cc1c2n(c3c(CC(C)C)cc(C#N)cc13)CCCNC2=O` [Example 34, 11-Methyl-7-(2-methylpropyl)-1-oxo-2,3,4,5-tetrahydro-[1,4]diazepino[1,2-a]indole-9-carbonitrile] were 235 °C and 0.13 µM.
`Cc1c2n(c3c(C)cc(C#N)cc13)CCCNC2=O` [Example 35, 7,11-Dimethyl-1-oxo-2,3,4,5-tetrahydro-[1,4]diazepino[1,2-a]indole-9-carbonitrile]: the melting point was determined as 255 °C. In series [1], the EC (150% of control) was 3.19 µM.
For `COc1cc(CC(C)C)c2c(c1)cc1n2CCNC1=O` [Example 36, 8-Methoxy-6-(2-methylpropyl)-3,4-dihydro-2H-pyrazino[1,2-a]indol-1-one], in that order: 175 °C and 4.1 µM.
`CC(C)Cc1cc(OC(F)(F)F)cc2cc3n(c12)CCNC3=O` [Example 37, 6-(2-Methylpropyl)-8-(trifluoromethoxy)-3,4-dihydro-2H-pyrazino[1,2-a]indol-1-one] showed a melting point of 166 °C. Besides, the EC (150% of control) in series [1] was determined as 0.89 µM.
Consider `Cc1c2n(c3c(CC(C)C)cc(Cl)cc13)CCCNC2=O` [Example 38, 9-Chloro-11-methyl-7-(2-methylpropyl)-2,3,4,5-tetrahydro-[1,4]diazepino[1,2-a]indol-1-one], for which the melting point amounted to 176 °C. The EC (150% of control) in series [1] was determined as 0.37 µM.
For `Cc1c2n(c3c(C)cc(Cl)cc13)CCCNC2=O` [Example 39, 9-Chloro-7,11-dimethyl-2,3,4,5-tetrahydro-[1,4]diazepino[1,2-a]indol-1-one], in that order: 198 °C and 0.36 µM.
`CC(C)Cc1cc(C#N)cc2cc3n(c12)CCCNC3=O` [Example 40, 7-(2-Methylpropyl)-1-oxo-2,3,4,5-tetrahydro-[1,4]diazepino[1,2-a]indole-9-carbonitrile]: the melting point is 199 °C. The EC (150% of control) in series [1] turned out to be 0.55 µM.
In turn, `Cc1c2n(c3c(N4CCOCC4)cc(C#N)cc13)CCNC2=O` [Example 41, 10-Methyl-6-morpholin-4-yl-1-oxo-3,4-dihydro-2H-pyrazino[1,2-a]indole-8-carbonitrile] had a melting point of 276 °C. Further, the EC (150% of control) in series [1] was 0.092 µM.
Taken in the same sequence, the figures for `Cc1c2n(c3c(N4CCS(=O)(=O)CC4)cc(C#N)cc13)CCCNC2=O` [Example 42, 7-(1,1-Dioxo-1,4-thiazinan-4-yl)-11-methyl-1-oxo-2,3,4,5-tetrahydro-[1,4]diazepino[1,2-a]indole-9-carbonitrile] were 393 °C and 0.077 µM.
For `N#Cc1cc(N2CCS(=O)(=O)CC2)c2c(c1)cc1n2CCCNC1=O` [Example 43, 7-(1,1-Dioxo-1,4-thiazinan-4-yl)-1-oxo-2,3,4,5-tetrahydro-[1,4]diazepino[1,2-a]indole-9-carbonitrile], in that order: 404.5 °C and 0.98 µM.
Regarding `Cc1c2n(c3c(N4CCOCC4)cc(C#N)cc13)CCCNC2=O` [Example 44, 11-Methyl-7-morpholin-4-yl-1-oxo-2,3,4,5-tetrahydro-[1,4]diazepino[1,2-a]indole-9-carbonitrile], the melting point came to 227 °C. This molecule came in with an EC (150% of control) in series [1] of 0.046 µM.
Molecule `N#Cc1cc(N2CCOCC2)c2c(c1)cc1n2CCCNC1=O` [Example 45, 7-Morpholin-4-yl-1-oxo-2,3,4,5-tetrahydro-[1,4]diazepino[1,2-a]indole-9-carbonitrile] had a melting point of 221 °C. For the same molecule, in series [1], the EC (150% of control) worked out at 0.24 µM.
Taken in the same sequence, the figures for `N#Cc1cc(N2CCOCC2)c2c(c1)cc1n2CCNC1=O` [Example 46, 6-Morpholin-4-yl-1-oxo-3,4-dihydro-2H-pyrazino[1,2-a]indole-8-carbonitrile] were 280 °C and 0.04 µM.
